# Measurements published in US20230134843A1, “TREATMENT OF STEM CELL DEFICIENCY” (OSPEDALE SAN RAFFAELE S.R.L., priority 2020, published 2023).
# Entries after “also recorded” stand apart in the source; their conditions may differ.
# What was measured:
# [1] = system: γH2AX; assay: Western blot of γH2AX as senescence marker in corneal epithelium, disepithelization model (Example 1); assay type: in vivo, mice
# Procedure: Eight-week-old C57BL6/N (Charles River, Calco, Italy) (WT mice, n=8) and B6.Cg-Tac1tm1Bbm/J (Jackson Laboratories, Bar Harbor, Me., USA) (TAC1-KO mice, n=8) male mice were used in all experiments. Each animal was anesthetized with intraperitoneal injection of tribromoethanol (250 mg/kg) and a topical anesthetic was applied to their ocular surface prior to the surgical procedure. Disepithelization was performed based on the model previously described, using a blunt spatula to scrap the entire corneal epithelium from limbus to limbus. After wounding, eyes were treated with ophthalmic moxifloxacin 1 time/day for 1 week to […]. Fourteen days after disepithelization mice were euthanized using carbon dioxide inhalation and subsequent cervical dislocation. Corneas were collected for immunostaining and western blot analysis. […]
# For Western Blot analysis, corneal epithelium was isolated after 30 minutes of EDTA treatment (Sigma-Aldrich Corp., St. Louis, Mo., USA) at 37° C. […] Bands were quantified using Image Lab™ software (Version 6.0.1, Bio-Rad Laboratories, Hercules, Calif., USA).
# The expression of p70 S6 Kinase (P70S6), phospho-p70 S6 Kinase (pP70S6), and phospho-histone 2-AX (γH2AX) was evaluated by Western Blot, as previously described in section 2.9. […] Bands were quantified using Image J software (National Institutes of Health, Bethesda, Md., USA).
# [2] = target: T1, NK1R (Mus musculus, UniProt P30548); assay: Corneal opacity grading score, stem cell deficiency model (Example 2); assay type: in vivo, mice
# T1 construct: NK1R is expressed by both corneal epithelial and stem cell-like cells; from tissue; host or cells: cornea / ocular surface of live C57BL6/N mice (topical dosing in vivo)
# T1 sequence (P30548 whole entry): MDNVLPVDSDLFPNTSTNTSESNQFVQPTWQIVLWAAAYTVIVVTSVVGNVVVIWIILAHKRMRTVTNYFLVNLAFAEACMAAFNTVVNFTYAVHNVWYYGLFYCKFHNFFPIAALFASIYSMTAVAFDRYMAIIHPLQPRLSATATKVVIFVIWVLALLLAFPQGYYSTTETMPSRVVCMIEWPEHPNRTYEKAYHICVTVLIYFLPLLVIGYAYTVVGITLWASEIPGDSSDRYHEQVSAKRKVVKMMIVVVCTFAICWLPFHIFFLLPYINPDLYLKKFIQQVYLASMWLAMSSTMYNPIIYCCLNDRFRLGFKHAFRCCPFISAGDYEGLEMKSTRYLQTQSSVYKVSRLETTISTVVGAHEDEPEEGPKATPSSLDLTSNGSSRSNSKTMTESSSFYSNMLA
# From the text: Eight-week-old male mice C57BL6/N (Charles River, Calco, Italy) (WT mice, n=18) and Tac1-deficient B6.Cg-Tac1tm1Bbm/J (Jackson Laboratories, Bar Harbor, Me., USA) (TAC1-KO mice, n=18) were used in all experiments. TAC1-KO mice are homozygous null for the Tac1 gene. […] The corneal thickness and transparency as well as the corneal nerve length are similar to C57BL/6 mice [Barbariga M, Rabiolo A, Fonteyne P, Bignami F, Rama P, Ferrari G. The effect of aging on nerve morphology and substance P expression in mouse and human corneas. Investig Ophthalmol Vis Sci 2018; 59:5329-35. https://doi.org/10.1167/iovs.18-24707.]. […]
# Every day after disepithelization, in vivo corneal photographs were taken using a digital camera (EOS 30D; Canon, Tokyo, Japan) attached to a slit-lamp microscope (Photoslitmap 40 SL-P; Zeiss, Oberkochen, Germany) to assess corneal condition. Corneal opacity was evaluated using a grading score (from 0-4; 0=completely clear, 4=completely opaque) previously described [Yoeruek E, Deuter C, Gieselmann S, Saygili O, Spitzer M S, Tatar O, et al. Long-term visual acuity and its predictors after cataract surgery in patients with uveitis. […] The percentage of green fluorescent area on the total corneal area was evaluated by analyzing images by Image J software (National Institutes of Health, Bethesda, Md., USA).
smiles,measurement,setting,value
"C[C@@H](O[C@H]1OCCN(Cc2nc(=O)n(P(=O)(O)O)[nH]2)[C@H]1c1ccc(F)cc1)c1cc(C(F)(F)F)cc(C(F)(F)F)c1 [Fosaprepitant, [3-{[(2R,3S)-2-[(1R)-1-[3,5-bis(trifluoromethyl)phenyl]ethoxy]-3-(4-fluorophenyl)morpholin-4-yl]methyl}-5-oxo-2H-1,2,4-triazol-1-yl]phosphonic acid]",H2AX expression in comparison to WT (in words),"[1]; Fosaprepitant 10 mg/mL (WT-FOSA), western blot",decreased
same,decreased γH2AX expression in comparison to WT,"[1]; Fosaprepitant 10 mg/mL topically four times a day for 14 days (WT-FOSA), p<0.05",26%
same,corneal opacity compared to WT,[2]; Fosaprepitant 0.1 mg/mL (FOSA 0.1) topically 4 times/day for 16 days,did not show any improvement; also recorded: no improvement
same,corneal transparency compared to WT,"[2]; Fosaprepitant 1 mg/mL (FOSA 1) topically 4 times/day for 16 days, p<0.05",significant improvement; also recorded: better corneal transparency
